Patent US8937089B2, “Synergistic mixtures of anthranilamide invertebrate pest control agents” (priority 2004, dated 2015)
Read-outs that look alike come from different tables or passages of the source.

Legend:
Type in all cases: in vivo
[1] = test system: diamondback moth (Plutella xylostella); assay: whole plant or invertebrate
Experimental: The test compounds were dissolved in water. […] Serial dilutions were made to obtain the appropriate concentrations. To obtain the desired mixture concentrations of each compound, twice the desired concentration of each of the two mixture partner compounds were mixed together in equal volumes.
The diluted solutions of the test compounds were sprayed to run-off on three-week-old tomato plants. The plants were placed on a rotating turntable sprayer (10 rpm). Test solutions were applied using a flat fan air-assisted nozzle (Spraying Systems 122440) at 10 psi (69 kPa). […] The leaves were cut into pieces, which were placed singly into 5.5 cm-by-3.5 cm cells of a sixteen-cell plastic tray. Each cell contained a 2.5-cm square of moistened chromatography paper to prevent desiccation. One insect was placed in each cell. There two trays per treatment. Trays were held in the growth chamber at 25° C., 16-hour light:8-hour dark, 60% relative humidity for 4 days.
(§1) For evaluating control of diamondback moth (Plutella xylostella), cabbage (var. Stonehead) plants were grown in Metromix potting soil in 10-cm pots in aluminum trays to test size (28 days, 3-4 full leaves) the plants were sprayed to the point of runoff using the turntable sprayer as described in Test I. Test compounds were formulated and sprayed on test plants as described for Test I. After drying for 2 hours, the treated leaves were excised and infested with one cabbage looper per cell and covered. The test units were placed on trays and put in a growth chamber at 25° C. and 60% relative humidity for 4 days.

[2] = test system: silverleaf whitefly (Bemisia argentifolii); assay: Test G: systemic control of silverleaf whitefly, drip irrigation of tomato plant in greenhouse
Experimental: For evaluating systemic control of silverleaf whitefly (Bemisia argentifolii), each test unit consisted of a 10-inch (25.4 cm) pot with sand, and a tomato plant (var. Tiny Tim) at the 5 to 10 true leaf stage. Oxamyl was in the liquid formulation as Vydate® L and compound 1 was in a wettable powder formulation with 50% active ingredient. Test compounds in approximately 200 mL of water per pot were applied by drip irrigation in the greenhouse. Whitefly activity was evaluated on a naturally occurring population by removing 5 old leaves with clearly visible nymphs. When there were no leaves with clearly visible nymphs, 5 old leaves were removed at random. Leaves were evaluated for dead and live nymphs. For all tests, analysis was conducted by using Fisher's LSD test for means separation, at p=0.05 (see. K. A. Gomez and A. A. Gomez, “Statistical Procedures for Agricultural Research”, 2nd edition, John Wiley & Sons, New York, 680 pp). Mean comparisons were made within each evaluation date only.

[3] = test system: beet armyworm (Spodoptera exigua); assay: Test H: systemic control of beet armyworm, drip irrigation of tomato plant, leaf discs, % mortality and % feeding; settings: mg ai/pot: Oxamyl 100, Compound 1 20, Oxamyl + Compound 1 100 + 20
Experimental: For evaluating systemic control of beet armyworm (Spodoptera exigua), each test unit consisted of a 10-inch (25.4 cm) pot filled with sand and containing a tomato plant (var. Tiny Tim) at the 5 to 10 true leaf stage. Oxamyl was in the liquid formulation as Vydate® L and compound 1 was in a wettable powder formulation with 50% active ingredient. Test compounds in approximately 200 mL of water per pot were applied by drip irrigation in the greenhouse. The plants were sampled at indicated date by cutting discs of the leaf material and placing each disc on a layer of agar gel in a 16-well, 1.5 oz. cup tray (B-150-S 0.028 Natural, Clear Pack Co., Franklin Park, Ill. 60131). One beet armyworm larva was added to each cell and the cells were covered. Trays were held in the growth chamber at 25° C., 16-hour light:8-hour dark, 60% relative humidity for 4 days. The percentage of mortality (abbreviated as % Morta.) and percentage of feeding (abbreviated as % feed), were visually assessed; the results are listed in Table 9. For all tests, analysis was conducted by using the LSD test. Mean comparisons were made within each evaluation date only.

[4] = test system: cabbage looper (Trichoplusia ni); assay: Test J: foliar control of cabbage looper, sprayed cabbage leaves, % mortality and % feeding; settings: for mortality at […]: Trichoplusia ni, foliar, read-out: % mortality (observed)
Experimental: For evaluating control of beet armyworm (Spodoptera exigua), methomyl was in the liquid formulation as Lannate® LV (29% of active ingredient). Compound 1 was in a water dispersible granules (WDG) formulation with 35% active ingredient. The test compounds were dissolved in water. Enough water was added to make 100 ppm of active ingredient for each compound. Serial dilutions were made to obtain the appropriate concentrations. To obtain the desired mixture concentrations of each compound, twice the desired concentration of each of the two mixture partner compounds were mixed together in equal volumes.
The diluted solutions of the test compounds were sprayed to run-off on three-week-old tomato plants. The plants were placed on a rotating turntable sprayer (10 rpm). Test solutions were applied using a flat fan air-assisted nozzle (Spraying Systems 122440) at 10 psi (69 kPa). After each treated plant had dried, leaves were excised from the treated plant. The leaves were cut into pieces, which were placed singly into 5.5 cm-by-3.5 cm cells of a sixteen-cell plastic tray. Each cell contained a 2.5-cm square of moistened chromatography paper to prevent desiccation. One insect was placed in each cell. There two trays per treatment. Trays were held in the growth chamber at 25° C., 16-hour light:8-hour dark, 60% relative humidity for 4 days.
as §1, with “evaluating foliar” for “evaluating”, “cabbage looper (Trichoplusia ni),” for “diamondback moth (Plutella xylostella),”, “leaves).” for “leaves) the plants were sprayed to the point of runoff using the turntable sprayer as described in Test I.”

[5] = Day 6, mg ai/pot: Oxamyl 100, Compound 1 20, Oxamyl + Compound 1 100 + 20
[6] = Day 13, mg ai/pot: Oxamyl 100, Compound 1 20, Oxamyl + Compound 1 100 + 20
[7] = Day 20, mg ai/pot: Oxamyl 100, Compound 1 20, Oxamyl + Compound 1 100 + 20
[8] = Day 13 - old growth (first of two heads so printed, c4)
[9] = Day 13 - old growth (first of two heads so printed, c5)
[10] = Day 13 - old growth (second of two heads so printed, c6)
[11] = Day 13 - old growth (second of two heads so printed, c7)

Compound | % Mortality [2, 5] | Nymphs number [2, 5] | % Mortality [2, 6] | Nymphs number [2, 6] | % Mortality [2, 7] | Nymphs number [2, 7] | % Morta. ([3]; Day 6 new & old) | % feed ([3]; Day 6 new & old) | % Morta. [3, 8] | % feed [3, 9] | % Morta. [3, 10] | % feed [3, 11] | % Morta. ([3]; Day 20 - new growth) | % feed ([3]; Day 20 - new growth) | % Morta. ([3]; Day 20 - old growth) | % feed ([3]; Day 20 - old growth) | other results
CNC(=O)c1cc(Cl)cc(C)c1NC(=O)c1cc(Br)nn1-c1ncccc1Cl [Compound 1, 3-bromo-N-[4-chloro-2-methyl-6-[(methylamino)carbonyl]phenyl]-1-(3-chloro-2-pyridinyl)-1H-pyrazole-5-carboxamide] | 44% | 316 | 99% | 194 | 100% | 300 | 99% | 0% | 100% | 0% | 97% | 0% | 100% | 0% | 100% | 0% | % feeding ([1]; Compound 1 0.007 ppm): 10.0%; % feeding ([1]; Compound 1 0.030 ppm): 0%; mortality at 0.007 ppm ([1]; Plutella xylostella, in Brassica oleracea, Compound 1 0.007 ppm, read-out: % mortality (observed)): 13%; mortality at […] ([1]; Plutella xylostella, in Brassica oleracea, Compound 1 0.013 ppm, read-out: % mortality (observed)): 34%; mortality at 0.03 ppm ([1]; Plutella xylostella, in Brassica oleracea, Compound 1 0.030 ppm, read-out: % mortality (observed)): 78%; mortality at 0.01 ppm ([1]; Plutella xylostella, in Brassica oleracea, rate 0.01 ppm, read-out: % mortality (obs)): 87%; mortality at 0.02 ppm ([1]; Plutella xylostella, in Brassica oleracea, rate 0.02 ppm, read-out: % mortality (obs)): 77%; mortality at 0.04 ppm ([1]; Plutella xylostella, in Brassica oleracea, rate 0.04 ppm, read-out: % mortality (obs)): 93%; mortality at […] ([4]; Compound 1 0.032 ppm): 9%; mortality at […] ([4]; Compound 1 0.057 ppm): 22%
COC(=O)N(C(=O)N1CO[C@@]2(C(=O)OC)Cc3cc(Cl)ccc3C2=N1)c1ccc(OC(F)(F)F)cc1 [Indoxacarb] |  |  |  |  |  |  |  |  |  |  |  |  |  |  |  |  | % feeding ([1]; Indoxacarb 0.147 ppm): 13.8%; % mortality (observed) ([1]; Indoxacarb 0.147 ppm): 33%; % feeding ([1]; Indoxacarb 0.226 ppm): 3.5%; % mortality (observed) ([1]; Indoxacarb 0.226 ppm): 25%; % feeding ([1]; Indoxacarb 0.340 ppm): 0.5%; % mortality (observed) ([1]; Indoxacarb 0.340 ppm): 47%; % feeding ([1]; Indoxacarb 1 ppm): 0.1%; % mortality (observed) ([1]; Indoxacarb 1 ppm): 50%; % feeding ([4]; Indoxacarb 0.146 ppm): 68%; % mortality (observed) ([4]; Indoxacarb 0.146 ppm): 31%
CNC(=O)O/N=C(\SC)C(=O)N(C)C [Oxamyl] | 6% | 380 | 34% | 506 | 28% | 404 | 26% | 49% | 35% | 43% | 40% | 40% | 25% | 92% | 31% | 65% | 
